Experimental data taken from US20250144067A1, “PERSONALIZED STARVATION THERAPY FOR CANCER” (Faeth Therapeutics, Inc., priority 2021, published 2025).
Counter-ions that a name gives are not always drawn. Like-named read-outs stand apart in the source and are kept apart here.

Legend:
[1] = tested on: NCI-H292 lung cancer cells; assay: FDA drug screening, complete media vs cholesterol-free media with simvastatin (TABLE 2); type: cell-based, human
[2] = tested on: NCI-H292 lung cancer cells; assay: FDA drug screening, complete media vs cholesterol-free media without statin (TABLE 1); type: cell-based, human
[3] = NCI-H292 cells, FDA library drug in cholesterol-free media with simvastatin 0.04 μM
[4] = NCI-H292 cells, FDA library drug in complete media
[5] = complete media vs cholesterol-free media + simvastatin (0.04 μM), >0 enhanced anti-cancer activity, about 0 neutral, <0 antagonist
[6] = Complete minus Cholesterol-free, greater than 0 enhanced anti-cancer activity, about 0 neutral, below 0 antagonists
[7] = NCI-H292 cells in cholesterol-free media without statin
[8] = NCI-H292 cells in complete media
[9] = NCI-H292 cells, cholesterol-free media with simvastatin 0.04 μM, FDA drug library screen (TABLE 2)
[10] = NCI-H292 cells, complete media, FDA drug library screen (TABLE 2)
[11] = complete media minus cholesterol-free media + simvastatin (0.04 μM), >0 enhanced anti-cancer activity, about 0 neutral, <0 antagonist
[12] = NCI-H292 cells, FDA drug library screen, cholesterol-free media with simvastatin 0.04 μM
[13] = NCI-H292 cells, FDA drug library screen, complete media
[14] = NCI-H292 cells, cholesterol-free media without statin, FDA drug library screen
[15] = NCI-H292 cells, complete media, FDA drug library screen
[16] = complete vs cholesterol-free media, >0 enhanced anti-cancer activity, about 0 neutral, <0 antagonist
[17] = NCI-H292 cells, drug in cholesterol-free media with simvastatin 0.04 μM
[18] = NCI-H292 cells, drug in complete media
[19] = NCI-H292 cells, cholesterol-free media without statin
[20] = complete vs cholesterol-free media, greater than 0 enhanced anti-cancer activity, about 0 neutral, below 0 antagonists

SMILES: Cc1ccnc(NS(=O)(=O)c2ccc(N)cc2)n1 [Sulfamerazine]
- Cholesterol-free media + simvastatin (0.04 μM) [1, 3]: 2.163
- Complete Media [1, 4]: 1.355
- Difference [1, 5]: −0.81
- Difference [2, 6]: −0.49
- Cholesterol-free [2, 7]: 1.498
- Complete [2, 8]: 1.009

SMILES: CC(C)OC(=O)OCOP(=O)(CO[C@H](C)Cn1cnc2c(N)ncnc21)OCOC(=O)OC(C)C [Tenofovir (Disoproxil)]
- Cholesterol-free media + simvastatin (0.04 μM) [1, 3]: 1.242
- Complete Media [1, 4]: 0.9076
- Difference [1, 5]: −0.33
- Difference [2, 6]: −0.65
- Cholesterol-free [2, 7]: 1.348
- Complete [2, 8]: 0.7009

SMILES: CN(C)[C@@H]1C(O)=C(C(N)=O)C(=O)[C@@]2(O)C(O)=C3C(=O)c4c(O)cccc4[C@@](C)(O)[C@H]3[C@H](O)[C@@H]12 [Oxytetracycline (hydrochloride)]
- Cholesterol-free media + simvastatin (0.04 μM) [1, 9]: 0.991
- Complete Media [1, 10]: 0.9652
- Difference [1, 11]: −0.03
- Difference [2, 6]: −0.72
- Cholesterol-free [2, 7]: 1.728
- Complete [2, 8]: 1.007

SMILES: Nc1nc2c(ncn2COCCO)c(=O)[nH]1 [Acyclovir]
- Cholesterol-free media + simvastatin (0.04 μM) [1, 12]: 1.866
- Complete Media [1, 13]: 1.782
- Difference [1, 5]: −0.08
- Cholesterol-free [2, 14]: 0.843
- Complete [2, 15]: 1.434
- Difference [2, 16]: 0.59

SMILES: CC1COc2c(N3CCN(C)CC3)c(F)cc3c(=O)c(C(=O)O)cn1c23 (stereo not drawn) [Ofloxacin]
- Cholesterol-free media + simvastatin (0.04 μM) [1, 17]: 1.154
- Complete Media [1, 18]: 0.9389
- Difference [1, 5]: −0.22
- Cholesterol-free [2, 19]: 1.221
- Complete ([2]; NCI-H292 cells, complete media): 0.8562
- Difference [2, 20]: −0.36

SMILES: CCc1oc2ccccc2c1C(=O)c1cc(Br)c(O)c(Br)c1 [Benzbromarone]
- Cholesterol-free media + simvastatin (0.04 μM) ([1]; NCI-H292 cells, cholesterol-free media with simvastatin 0.04 μM, cell growth value in FDA drug screen): 0.9582
- Complete Media ([1]; NCI-H292 cells, complete media, cell growth value in FDA drug screen): 0.9819
- Difference ([1]; complete media minus cholesterol-free media + simvastatin, >0 enhanced anti-cancer activity, about 0 neutral, <0 antagonist): 0.02
- Difference [2, 6]: −0.92
- Cholesterol-free [2, 7]: 1.902
- Complete [2, 8]: 0.9837

SMILES: O=C(O)CCCC[C@@H]1SC[C@@H]2NC(=O)N[C@@H]21 [Biotin]
- Cholesterol-free media + simvastatin (0.04 μM) [1]: 1.06
- Complete Media [1]: 0.9767
- Difference [1]: −0.08
- Cholesterol-free [2]: 1.067
- Complete [2]: 0.6067
- Difference [2]: −0.46

SMILES: C[N+](C)(C)NCCC(=O)[O-] [Mildronate]
- Cholesterol-free media + simvastatin (0.04 μM) [1, 9]: 0.9839
- Complete Media [1, 10]: 0.9927
- Difference [1, 11]: 0.01
- Difference ([2]; Complete minus Cholesterol-free, greater than 0 enhanced anti-cancer activity, about 0 neutral, below 0 antagonist): −0.08
- Cholesterol-free ([2]; NCI-H292 cells, FDA drug library screen, cholesterol-free media without statin): 0.9949
- Complete [2, 13]: 0.9146

SMILES: CCCN(CCC)C(=O)C(CCC(=O)O)NC(=O)c1ccccc1 (stereo not drawn) [Proglumide]
- Cholesterol-free media + simvastatin (0.04 μM) [1, 9]: 0.8053
- Complete Media [1, 10]: 0.7842
- Difference [1, 11]: −0.02
- Cholesterol-free [2, 14]: 0.7154
- Complete [2, 15]: 1.407
- Difference [2, 16]: 0.69

SMILES: CCOC(=O)COc1ccc2c(=O)cc(-c3ccccc3)oc2c1 [Efloxate]
- Cholesterol-free media + simvastatin (0.04 μM) [1, 12]: 1.124
- Complete Media [1, 13]: 0.9754
- Difference [1, 5]: −0.15
- Cholesterol-free [2, 19]: 1.349
- Complete ([2]; NCI-H292 cells, complete media): 0.929
- Difference [2, 20]: −0.42

SMILES: OCC(O)CN1CCN(c2ccccc2)CC1 (stereo not drawn) [Dropropizine]
- Cholesterol-free media + simvastatin (0.04 μM) [1, 17]: 1.188
- Complete Media [1, 18]: 0.9581
- Difference [1, 5]: −0.23
- Difference [2, 6]: −0.56
- Cholesterol-free [2, 7]: 1.559
- Complete [2, 8]: 1

SMILES: Cc1onc(-c2c(F)cccc2Cl)c1C(=O)N[C@@H]1C(=O)N2[C@@H]1SC(C)(C)[C@@H]2C(=O)O [Flucloxacillin sodium]
- Cholesterol-free media + simvastatin (0.04 μM) [1, 3]: 1.127
- Complete Media [1, 4]: 0.8297
- Difference [1, 5]: −0.30
- Difference ([2]; Complete minus Cholesterol-free, >0 enhanced anti-cancer activity, about 0 neutral, <0 antagonist): −0.29
- Cholesterol-free [2, 19]: 1.264
- Complete ([2]; NCI-H292 cells, complete media): 0.9693
